Assay results published in the NIST ThermoML archive (doi:10.1021/je200886j).

Legend:
[1] = wn = mass fraction of the nth substance listed; conditions: 101 kPa, Liquid; for mass density: Pycnometric method
[2] = 101 kPa, Liquid; for mass density: Pycnometric method

CN1CCCC1=O [N-methylpyrrolidone] + CCCCn1cc[n+](C)c1.F[B-](F)(F)F
[1]
Conditions	mass density, 298.15 K [kg/m3]	mass density, 303.15 K [kg/m3]	mass density, 308.15 K [kg/m3]	mass density, 313.1 K [kg/m3]	mass density, 318.15 K [kg/m3]	viscosity, 298.15 K [mPa·s]	viscosity, 303.15 K [mPa·s]	viscosity, 308.15 K [mPa·s]	viscosity, 313.1 K [mPa·s]	viscosity, 318.15 K [mPa·s]
w2 = 0	1028.3	1024.5	1020.1	1015.8	1011.7	1.683	1.558	1.47	1.337	1.248
w2 = 0.5	1115.6	1111.8	1107.9	1104.1	1100.3	8.196	7.291	6.382	5.63	5.045
w2 = 0.6999	1148.8	1145.6	1142	1138.3	1135	19.33	16.03	13.51	11.63	10.07
w2 = 0.8981	1182	1179.4	1176.2	1173.1	1170.1	49.46	39.75	32.43	26.93	22.47

CCCCn1cc[n+](C)c1.F[B-](F)(F)F [1-butyl-3-methylimidazolium tetrafluoroborate] + CN1CCCC1=O
[1], w1 = 1
Conditions	mass density [kg/m3]	viscosity [mPa·s]
298.15 K	1200.6	93.81
303.15 K	1197.7	71.76
308.15 K	1194.8	56.41
313.1 K	1191.5	45.6
318.15 K	1188.4	37.32

CCCCn1cc[n+](C)c1.F[B-](F)(F)F [1-butyl-3-methylimidazolium tetrafluoroborate]
[2]
Conditions	mass density [kg/m3]	viscosity [mPa·s]
298.15 K	1200.6	93.81
303.15 K	1197.7	71.76
308.15 K	1194.8	56.41
313.1 K	1191.5	45.6
318.15 K	1188.4	37.32

CN1CCCC1=O [N-methylpyrrolidone]
[2]
Conditions	mass density [kg/m3]	viscosity [mPa·s]
298.15 K	1028.3	1.683
303.15 K	1024.5	1.558
308.15 K	1020.1	1.47
313.1 K	1015.8	1.337
318.15 K	1011.7	1.248
